Results: patent publication EP4389739A1, “MOLECULE HAVING PESTICIDAL UTILITY AND PROCESSES RELATED THERETO” (Corteva Agriscience LLC, priority 2022, dated 2024)

Experiments:
Assay type in all cases: in vivo
[1] = test system: root lesion nematode (RLN), Pratylechus penetrans; experiment: Root Lesion Nematode (RLN) in-vitro mortality test; conditions: mortality after 48 hours, about 25 °C, 0.5% DMSO in water
Method: The following Root Lesion Nematode (RLN) test was conducted to compare the activities of S1, R1, and B1.
We carried out an in-vitro experiment to compare activity of S1, R1, and B1 with each other against the root lesion nematode (RLN), Pratylechus penetrans. Each of S1, R1, and B1 were tested at six rates: 62.5, 15.6, 4, 1, 0.25, and 0 ppm (UTC) with three replications of each treatment. Equal volume of nematode suspension was added to an equal volume of each of S1, R1, and B1 dissolved in 0.5% DMSO (dimethyl sulfoxide) in water in 25 mL vials. The treated nematode suspension was incubated at room temperature (about 25 °C) on a shaker (95 RPM). Aliquots of 1 mL of the nematode suspension was evaluated under a microscope for mortality after 48 hours. RLN were counted, and the number of dead and active nematodes was used to calculate % mortality from which lethal concentration (LC) values were generated.

[2] = test system: soybean cyst nematode (SCN): Heterodera glycines second stage juveniles (J2); experiment: Soybean Cyst Nematode (SCN) in-vitro mortality test; conditions: mortality after 48 hours of incubation, about 25 °C, 0.5% DMSO in water; probit analysis
Method: The following Soybean Cyst Nematode (SCN) test was conducted to compare the activities of S1, R1, and B1.
We carried out an in-vitro experiment to compare activity of S1, R1, and B1 with each other against the soybean cyst nematode (SCN): Heterodera glycines second stage juveniles (J2). Each of S1, R1, and B1 were tested at six rates: 62.5, 15.6, 4, 1, 0.25, and 0 ppm (untreated control, UTC) with three replications of each treatment. Equal volume of nematode suspension was added to an equal volume of compound dissolved in 0.5% DMSO (dimethyl sulfoxide) in water. The nematode plus compound was incubated at room temperature (about 25 °C) on a shaker at 95 revolutions per minutes (RPM). Aliquots of 0.5 milliliters (mL) of the nematode suspension were evaluated under a microscope for mortality after 48 hours of incubation. SCN J2s were counted, and the number of dead and active nematodes was used to calculate % SCN mortality which was used to generate lethal concentration (LC) values by probit analysis.

[3] = test system: root knot nematode (RKN), Meloidogyne incognita; experiment: Root Knot Nematode (RKN) test on cucumber seedlings in greenhouse, Galling Index converted to % control, EC by probit analysis; conditions: based on % control from Galling Index, cucumber, 4,000 J2s, 14 days in Greenhouse, about 27 °C
Method: The following Root Knot Nematode (RKN) test was conducted to compare the activities of S1, R1, and B1.
We conducted an experiment to evaluate comparative bioactivity of S1, R1, and B1 against the root knot nematode (RKN), Meloidogyne incognita. Each of S1, R1, and B1 were tested at […]: 125, 62.5, 31.25, 15.6, 7.8, 3.9, and 2 ppm. Cucumber seeds (Cucumis sativus) were planted in a sandy loam soil in 3-inch pots. After 6 days of germination, the seedlings were treated with the test compounds dissolved in 5% acetone in water. The treated plants were inoculated with 4,000 second stage juveniles (J2s) of M. incognita. Each experimental unit was replicated three times. The inoculated plants were kept in a Greenhouse for 14 days (about 27 °C) before evaluating the amount of root damage (galls) called Galling Index (GI) based on a scale of 0 - 10; where 0 = no galls (100% control), and 10 = maximum galls (no control). The GI was converted to % control using the formula (10 - GI) x 10; where GI = Gall Index. Effective concentration (EC) values based on the % control of the nematode by S1, R1 and B1 were calculated by probit analysis.

[4] = test system: M. incognita; experiment: Residuality test in soil: treated soil aged four weeks, then cucumber seedlings transplanted and inoculated; conditions: 1250 g ai/ha applied to bare sandy loam soil, four weeks before transplanting and inoculation; 14 days; four replicates
Method: The molecules in Example Two were compared in a residuality test.
A residuality test was conducted to compare the residual control or persistence of S 1, R1, C1, C2, C3, C4, and C5 in soil. Each compound was applied to a bare sandy loam soil (without plant or nematode) in a 3-inch pot at 1250 g ai/ha. The treated soils were kept in a Greenhouse (temperature 27 °C) under regular irrigation for four weeks. At the end of the four weeks, six-day old cucumber (Cucumis sativus) seedlings were transplanted into the treated soil and inoculated with 4,000 second stage juveniles of M. incognita. Each treatment was replicated four times. The inoculated plants were kept in a Greenhouse for 14 days (temperature 27 °C) before evaluating the amount of root damage (galls) called Galling Index (GI) based on a scale of 0 - 10; where 0 = no galls (100% nematode control), and 10 = maximum galls (no nematode control). The GI were converted to % control using the formula ((10 - GI) x 10); where GI = Gall Index. The data were analyzed by Analysis of Variance using JMP (John's Macintosh Project) statistical software and the means were separated using Tukey's HSD (α = 0.05).

[5] = test system: root knot nematode, Meloidogyne incognita; experiment: Root knot nematode comparative bioactivity test at a single rate, drench application on cucumber seedlings; conditions: 600 g ai/ha, 14 days after inoculation, (10 - GI) x 10, three replicates
Method: We carried out an experiment to evaluate comparative bioactivity of S 1, C1, C2, C3, C4, and C5 against the root knot nematode, Meloidogyne incognita. Each compound was tested at 600 grams of active ingredient per hectare (g ai/ha) and was replicated three times. Cucumber seeds (Cucumis sativus) were planted in a sandy loam soil in 3-inch pots. After six (6) days of planting, the seedlings were treated with the test compounds dissolved in 5% acetone in water by drench application. The plants were inoculated with 4,000 second stage juveniles (J2s) of M. incognita. The inoculated plants were kept in a Greenhouse for 14 days (temperature 27 °C) before evaluating the amount of root damage (galls) called Galling Index (GI) based on a scale of 0 - 10; where 0 = no galls (100% nematode control), and 10 = maximum galls (no nematode control). The GI was converted to % nematode control using the formula ((10 - GI) x 10); where GI = Gall Index. The data were analyzed by Analysis of Variance using JMP (John's Macintosh Project) statistical software and the means were separated using Tukey's HSD (α = 0.05).

Row | Structure (SMILES) | LC50 (ppm) [1] [ppm] | LC50 (ppm) [2] [ppm] | EC50 (ppm) [3] [ppm] | Mean Percent Control [4] [%] | Mean Percent Control [5] [%]
1 | CCC(CC)C(C)NC(=O)c1ccoc1Cl (racemic) [Molecule B1, 2-chloro-N-(3-ethylpentan-2-yl)furan-3-carboxamide] | 24.72 | 23.28 | 16.84 |  | 
2 | CC(C)C[C@H](C)NC(=O)c1ccoc1Cl [Molecule C2] |  |  |  | 25.0 | 54
3 | CC(C)[C@H](C)NC(=O)c1ccoc1Cl [Molecule C3] |  |  |  | 22.5 | 67
4 | C[C@H](NC(=O)c1ccoc1Cl)C1CCCCC1 [Molecule C4] |  |  |  | 2.5 | 25
5 | C[C@H](NC(=O)c1ccoc1Cl)C1CCCC1 [Molecule C5] |  |  |  | 22.5 | 50
6 | CCC(CC)[C@@H](C)NC(=O)c1ccoc1Cl [Molecule R1, (R)-2-chloro-N-(3-ethylpentan-2-yl)furan-3-carboxamide] | >62.5 | >62.5 | >125 | 7.5 | 
7 | CCC(CC)[C@H](C)NC(=O)c1ccoc1Cl [Molecule S1, (S)-2-chloro-N-(3-ethylpentan-2-yl)furan-3-carboxamide] | 6.89 | 1.799 | 4.95 | 77.5 | 84
